In US20260072030A1, “RAS BIOSENSORS” (The Regents of the University of California, priority 2022, published 2026):

Tests used:
Assay type in all cases: cell-based
Src = Src inhibitor pretreatment, EGF-induced HRas activity measured with RasAR sensors in COS-7 cells; conditions: for effect of pretreatment on EGF-induced response, cytosolic RasAR: RasAR + HRasWT, 1 μM inhibitor
Excerpt: To clarify the regulatory role of Src on HRas at the Golgi, we monitored HRas activity at the Golgi with GA-RasAR in the presence of Src inhibitor PP2.
Phosphorylation of residue Y32 has been implicated in the negative regulation of HRas by Src.31 To verify this mechanism of Src inhibition we co-expressed RasAR with HRasY32F and stimulated with EGF. […] KRas was recently shown to be negatively regulated by Src via dual phosphorylation of Y32 and Y64,28 which negatively impacts multiple steps of the GTPase cycle and impairs binding to effectors. However, the role of Y64 in HRas has not been investigated. To test the hypothesis that phosphorylation of both Y32 and Y64 is involved in Src regulation of HRas, we expressed RasAR and an mCherry-labeled HRas mutant containing Y32F/Y64F mutations and monitored EGF-induced responses in the presence and absence of PP2.
Cells were washed three times with Hanks's balanced salt solution (HBSS, Gibco) prior to imaging. Cells were imaged in HBSS in the dark at 37° C. […] Cells were imaged on a Zeiss Axio Observer Z1 microscope equipped with a 20×/0.8 NA objective and a Hamamatsu Flash 4.0 sCMOS camera, controlled using MicroManager 2.0 software. For time series, images from multiple fields of view were acquired at each time point at 30 sec intervals. RFP was imaged using a 568DF55 excitation filter, a 600DRLP dichroic mirror, and a 653DF95 emission filter. CFP was imaged using a 420DF20 excitation filter, a 455DRLP dichroic mirror, and a 470DF40 emission filter. CYFRET was imaged using a 420DF20 excitation filter, a 455DRLP dichroic mirror, and a 535DF25 emission filter. YFP was imaged using a 495DF10 excitation filter, a 515DRLP dichroic mirror, and a 535DF25 emission filter. Exposure times for each channel were 250-500 ms. All filter sets were controlled by a Lambda 10-2 filter-changer (Sutter Instruments). All fluorescence images were background-correcting by rolling circle background subtraction in ImageJ using a rolling-ball circle radius of 350 pixels. Cyan/yellow or yellow/cyan emission ratios were then calculated by dividing the CFP channel values by the CYFRET channel values, or the CYFRET channel values by CFP channel values, respectively. For the time-series analysis, all values were normalized to the time point prior to drug addition by dividing each value by basal ratio value prior to drug addition. Co-expression experiments were processed using Cell Profiler on background subtracted images and segmented using CYFRET channel images. Individual t½ measurements were acquired using custom script within Matlab.

KRasG12C = target: T1, KRasG12C (Homo sapiens, UniProt P01116, G12C)
T1 construct: expressed in transfected cells; host or cells: COS-7

mCherry-KRasG12C = experiment: Ras expression assessed by RFP intensity in COS-7 cells
KRasWT = target: T2, KRasWT (Homo sapiens, UniProt P01116); experiment: Live-cell Ras inhibitor assay, COS-7 cells co-expressing RasAR and KRasWT control; conditions: KRasWT controls, 10 μM, 24 hr, vs DMSO
T2 construct: host or cells: COS-7

ERK = ERK activity reporter (EKAR4) Y/C emission ratio in COS-7 cells; conditions: 10 μM, 3 hr
EGFR = experiment: Reversal of EGF-induced RasAR response by EGFR inhibitor; conditions: RasAR + mCherry-KRasWT, 100 ng/ml EGF followed by 200 nM AG1478
Excerpt: To determine whether RasAR can detect dynamic Ras activity, we co-expressed the sensor with mCherry-KRasWT in COS-7 cells and stimulated the cells with epidermal growth factor (EGF). […] Consistent with previous studies,26 we observed higher C/Y emission ratios in membrane ruffles following EGF stimulation, indicating enhanced KRas activity in these regions. In addition, consistent with the Golgi localization of Ras,26 we observed an increased activity in the Golgi compartment (FIGS. 2A and 8). […] The EGF-stimulated increases in the emission ratio occurred in both the membrane ruffles as well as the Golgi compartment (FIGS. 2B-2C and 8), with slower kinetics observed at the Golgi (FIG. 7A).
Cells were washed three times with Hanks's balanced salt solution (HBSS, Gibco) prior to imaging. Cells were imaged in HBSS in the dark at 37° C. […] Cells were imaged on a Zeiss Axio Observer Z1 microscope equipped with a 20×/0.8 NA objective and a Hamamatsu Flash 4.0 sCMOS camera, controlled using MicroManager 2.0 software. […] All fluorescence images were background-correcting by rolling circle background subtraction in ImageJ using a rolling-ball circle radius of 350 pixels. Cyan/yellow or yellow/cyan emission ratios were then calculated by dividing the CFP channel values by the CYFRET channel values, or the CYFRET channel values by CFP channel values, respectively. […]

## COc1cc2ncnc(Nc3ccc(Oc4ccccc4)cc3)c2cc1OC [SrcI1]
Src; vs DMSO
  effect of pretreatment on EGF-induced response, cytosolic RasAR: enhanced EGF-induced Ras activity

## C[C@@H]1C[C@@H]([C@H](O)CC2CC(=O)NC(=O)C2)C(=O)[C@@H](C)C1 [cycloheximide]
KRasG12C; ARS1620 10 μM with cycloheximide 100 μg/ml
  effect of inhibiting protein re-synthesis on kinetics of Ras inactivation by ARS1620: did not speed up the kinetics of Ras inactivation
mCherry-KRasG12C; 24-hr timeframe
  effect on KRasG12C expression levels: reduced KRasG12C expression levels
mCherry-KRasG12C; ARS1620 10 μM, cycloheximide 100 μg/ml
  Cohen's d, RFP intensities with and without cycloheximide: 0.36
mCherry-KRasG12C; cycloheximide treatment 24 hr
  Cohen's f, effect of treatment on mCherry-KRasG12C expression by RFP intensity: 1.26

## CC(C)(C)n1nc(-c2ccc(Cl)cc2)c2c(N)ncnc21 [PP2]
Src; GA-RasAR + mCherry-HRas, vs DMSO, n=300 cells each
  effect of pretreatment on EGF-induced response at the Golgi: enhanced
Src; vs DMSO
  effect of pretreatment on EGF-induced response, cytosolic RasAR: larger EGF-induced response
Src; RasAR + mCherry-HRasY32F, PP2 1 μM, vs control cells
  effect of pretreatment on EGF-induced response, HRasY32F: enhanced response to EGF
Src; RasAR + mCherry-HRasY32F/Y64F, vs control cells, n=180 cells each
  effect of pretreatment on EGF-induced response, HRas Y32F/Y64F: no significant difference
Src; pm-RasAR + mCherry-HRasWT, vs DMSO
  effect of pretreatment on EGF-induced Ras activity at the plasma membrane: did not affect EGF-induced Ras activity

## C=CC(=O)N1CCN(c2ncnc3c(F)c(-c4c(O)cccc4F)c(Cl)cc23)CC1 [ARS1620]
KRasG12C; 10 μM inhibitor
  time over which the C/Y emission ratio continuously declines after treatment: 5 h
KRasG12C; 10 μM, 3 μM, 1 μM, 0.3 μM, 0.1 μM, 24 hr
  concentration dependence of C/Y emission ratio: dose-dependent inhibition of KRasG12C
KRasG12C; 10 μM, 24 hr, vs DMSO
  effect on RasAR C/Y emission ratio: higher C/Y emission ratio in KRasG12C-expressing cells treated with DMSO compared with ARS1620 treatment
KRasWT
  effect on RasAR C/Y emission ratio: no effect of inhibitor treatment
ERK; mCherry-KRasG12C expressing COS-7 cells
  Cohen's d, effect of treatment on EKAR4 Y/C emission ratio: 0.84
ERK; mCherry-KRasWT expressing COS-7 cells
  Cohen's d, effect of treatment on EKAR4 Y/C emission ratio: 0.02
mCherry-KRasG12C; ARS1620 titration experiment, 24 hr
  Cohen's f, RFP intensities across titration treatment groups: 0.06

## COc1cc2ncnc(Nc3cccc(Cl)c3)c2cc1OC [AG1478]
EGFR
  effect on C/Y emission ratio after EGF stimulation: decrease in the C/Y emission ratio
